According to patent US12612368B2 (Remedy Plan, Inc., priority 2019, dated 2026):
Where two headings read alike, the source gives them in different places. Blank lines part the entries; values can stand above or below the compound they belong to.

Experiments:
NAMPT = molecular target: T1, NAMPT (Homo sapiens, UniProt P43490); assay: NAMPT Activity Assay (Abcam #ab221819); assay type: biochemical; details: purified NAMPT, two-step reaction, OD450 nm; percent inhibition vs no drug; compound concentration not stated
T1 construct: purchased Abcam ab221819

MV-4-11 cells = assay: Cell viability in MV-4-11 cells (CellTiter Glo2); assay type: cell-based; details: Homo sapiens, MV4-11, 96 h, 8-point dose response, 4 days
Protocol: Approximately 10,000 MV-4-11 cells per well of a 96-well plate were treated with DMSO (no drug control) or each compound in Tables E1 and E2 in an 8-point dose response for 4 days, Cell viability was measured using CellTiter Glo2. The ICse of each compound was determined using CDD Vault.

[1] = CellTiter Glo2 (Table E2), read-out: MV-4-11 Cell Viability, MV-4-11 IC50
[2] = CellTiter Glo2 (Table E1), read-out: MV-4-11 IC50

T1 sequence (P43490 whole entry): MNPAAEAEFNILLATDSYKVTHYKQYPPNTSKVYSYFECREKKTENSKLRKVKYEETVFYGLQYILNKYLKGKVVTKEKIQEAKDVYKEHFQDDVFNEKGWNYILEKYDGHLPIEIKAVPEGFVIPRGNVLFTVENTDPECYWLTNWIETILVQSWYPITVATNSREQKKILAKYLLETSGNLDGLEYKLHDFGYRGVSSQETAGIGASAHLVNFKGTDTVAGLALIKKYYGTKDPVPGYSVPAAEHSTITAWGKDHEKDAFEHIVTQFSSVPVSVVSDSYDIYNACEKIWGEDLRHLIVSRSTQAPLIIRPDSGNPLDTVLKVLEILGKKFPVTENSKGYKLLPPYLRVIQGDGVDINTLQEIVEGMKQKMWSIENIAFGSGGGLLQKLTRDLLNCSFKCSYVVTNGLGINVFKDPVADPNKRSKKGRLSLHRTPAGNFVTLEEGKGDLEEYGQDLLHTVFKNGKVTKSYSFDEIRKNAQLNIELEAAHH

Structure (SMILES): Cc1cc(-c2ccc(C(=O)NCc3cccnc3C)cn2)ccc1N(C)C(=O)CC#N [Compound I-492, 6-[4-[(2-cyanoacetyl)-methyl-amino]-3-methyl-phenyl]-N-[(2-methyl-3-pyridyl)methyl]pyridine-3-carboxamide]
NAMPT Inhibition Code (NAMPT): A (A = <33% inhibition) | IC50 (MV-4-11 cells; [1]): 6770 nM

Structure (SMILES): CC(=O)N(CC1CC1)c1ccc(-c2ccc(C(=O)NCc3ccccn3)cn2)cc1Cl [Compound I-698, 6-[4-[Acetyl(cyclopropylmethyl)amino]-3-chloro-phenyl]-N-(2-pyridylmethyl)pyridine-3-carboxamide]
NAMPT Inhibition Code (NAMPT): A (A = <33% inhibition)

Structure (SMILES): CC(=O)N(CC1CC1)c1ccc(-c2ccc(C(=O)NCc3cccnc3)cn2)cc1 [Compound I-421, 6-[4-[acetyl(cyclopropylmethyl)amino]phenyl]-N-(3-pyridylmethyl)pyridine-3-carboxamide]
NAMPT Inhibition Code (NAMPT): B (B = ≥33 to <66% inhibition) | IC50 (MV-4-11 cells; [2]): 117 nM

Structure (SMILES): CCC(=O)N(C)c1ccc(-c2ccc(C(=O)NCc3ccc(C)nc3C)cc2)cc1Cl [Compound I-481, 4-[3-chloro-4-[methyl(propanoyl)amino]phenyl]-N-[(2,6-dimethyl-3-pyridyl)methyl]benzamide]
NAMPT Inhibition Code (NAMPT): A (A = <33% inhibition) | IC50 (MV-4-11 cells; [1]): 104 nM

Structure (SMILES): CCOC(=O)N(C)c1ccc(-c2ccc(C(=O)NCc3cccnc3)nc2)cc1 [Compound I-330, ethyl N-methyl-N-[4-[6-(3-pyridylmethylcarbamoyl)-3-pyridyl]phenyl]carbamate]
NAMPT Inhibition Code (NAMPT): A (A = <33% inhibition) | IC50 (MV-4-11 cells; [2]): 6080 nM

Structure (SMILES): CC(=O)N(CC1CC1)c1ccc(-c2ccc(C(=O)Nc3cccnc3)cn2)cc1Cl [Compound I-683, 6-[4-[Acetyl(cyclopropylmethyl)amino]-3-chloro-phenyl]-N-(3-pyridyl)pyridine-3-carboxamide]
NAMPT Inhibition Code (NAMPT): C (C = ≥66% inhibition) | IC50 (MV-4-11 cells; [1]): > 997 nM

Structure (SMILES): CC(=O)N(CC1CC1)c1ccc(-c2ccc(C(=O)NCc3ccncc3)cn2)cc1Cl [Compound I-676, 6-[4-[Acetyl(cyclopropylmethyl)amino]-3-chloro-phenyl]-N-(4-pyridylmethyl)pyridine-3-carboxamide]
NAMPT Inhibition Code (NAMPT): A (A = <33% inhibition) | IC50 (MV-4-11 cells; [1]): > 997 nM

Structure (SMILES): CC(=O)N(CC1CC1)c1ccc(-c2ccc(C(=O)NCc3ccc(Cl)nc3)cn2)cc1Cl [Compound I-689, 6-[4-[Acetyl(cyclopropylmethyl)amino]-3-chloro-phenyl]-N-[(6-chloro-3-pyridyl)methyl]pyridine-3-carboxamide]
NAMPT Inhibition Code (NAMPT): C (C = ≥66% inhibition) | IC50 (MV-4-11 cells; [1]): 32.8 nM

Structure (SMILES): CC(=O)N(CC1CC1)c1ccc(-c2ccc(C(=O)NCc3cncc(F)c3)cn2)cc1Cl [Compound I-690, 6-[4-[Acetyl(cyclopropylmethyl)amino]-3-chloro-phenyl]-N-[(5-fluoro-3-pyridyl)methyl]pyridine-3-carboxamide]
NAMPT Inhibition Code (NAMPT): C (C = ≥66% inhibition) | IC50 (MV-4-11 cells; [1]): 336 nM

Structure (SMILES): CCC(=O)N(C)c1ccc(-c2ccc(C(=O)NCc3cccnc3C)cc2)cc1Cl [Compound I-460, 4-[3-chloro-4-[methyl(propanoyl)amino]phenyl]-N-[(2-methyl-3-pyridyl)methyl]benzamide]
NAMPT Inhibition Code (NAMPT): A (A = <33% inhibition) | IC50 (MV-4-11 cells; [1]): > 694 nM

Structure (SMILES): CCC(=O)N(CCNC(=O)OC(C)(C)C)c1ccc(-c2ccc(C(=O)NCc3cccnc3)cc2)cc1 [Compound I-417, tert-butyl N-[2-[N-propanoyl-4-[4-(3-pyridylmethylcarbamoyl)phenyl]anilino]ethyl]carbamate]
NAMPT Inhibition Code (NAMPT): A (A = <33% inhibition) | IC50 (MV-4-11 cells; [2]): 105 nM

Structure (SMILES): CC(=O)N(CC1CC1)c1ccc(-c2ccc(C(=O)NCc3ccc(C)nc3)cn2)cc1Cl [Compound I-697, 6-[4-[Acetyl(cyclopropylmethyl)amino]-3-chloro-phenyl]-N-[(6-methyl-3-pyridyl)methyl]pyridine-3-carboxamide]
NAMPT Inhibition Code (NAMPT): C (C = ≥66% inhibition)

Structure (SMILES): CCC(=O)N(C)c1ccc(-c2ccc(C(=O)NCc3cccnc3C(F)(F)F)cn2)cc1C [Compound I-511, 6-[3-Methyl-4-[methyl(propanoyl)amino]phenyl]-N-[[2-(trifluoromethyl)-3-pyridyl]methyl]pyridine-3-carboxamide]
NAMPT Inhibition Code (NAMPT): A (A = <33% inhibition) | IC50 (MV-4-11 cells; [1]): 7070 nM

Structure (SMILES): CC(=O)N(CC1CC1)c1ccc(-c2ccc(C(=O)NCc3ccc4nccn4c3)cn2)cc1Cl [Compound I-679, 6-[4-[Acetyl(cyclopropylmethyl)amino]-3-chloro-phenyl]-N-(imidazo[1,2-a]pyridin-6-ylmethyl)pyridine-3-carboxamide]
NAMPT Inhibition Code (NAMPT): C (C = ≥66% inhibition) | IC50 (MV-4-11 cells; [1]): 0.566 nM

Structure (SMILES): CC(=O)N(CCC#N)c1ccc(-c2ccc(C(=O)NCc3cccnc3)cn2)cc1 [Compound I-484, 6-[4-[acetyl(2-cyanoethyl)amino]phenyl]-N-(3-pyridylmethyl)pyridine-3-carboxamide]
NAMPT Inhibition Code (NAMPT): A (A = <33% inhibition) | IC50 (MV-4-11 cells; [1]): 2660 nM

Structure (SMILES): CC(=O)N(CC1CC1)c1ccc(-c2ccc(C(=O)NCc3cccnc3F)cn2)cc1Cl [Compound I-685, 6-[4-[Acetyl(cyclopropylmethyl)amino]-3-chloro-phenyl]-N-[(2-fluoro-3-pyridyl)methyl]pyridine-3-carboxamide]
NAMPT Inhibition Code (NAMPT): C (C = ≥66% inhibition) | IC50 (MV-4-11 cells; [1]): 340 nM

Structure (SMILES): CC(=O)N(CC1CC1)c1ccc(-c2ccc(C(=O)NCc3ccc(F)nc3)cn2)cc1Cl [Compound I-696, 6-[4-[Acetyl(cyclopropylmethyl)amino]-3-chloro-phenyl]-N-[(6-fluoro-3-pyridyl)methyl]pyridine-3-carboxamide]
NAMPT Inhibition Code (NAMPT): C (C = ≥66% inhibition)

Structure (SMILES): CC(=O)N(CC1CC1)c1ccc(-c2ccc(C(=O)Nc3cnc4[nH]ncc4c3)cn2)cc1Cl [Compound I-693, 6-[4-[Acetyl(cyclopropylmethyl)amino]-3-chloro-phenyl]-N-(1H-pyrazolo[3,4-b]pyridin-5-yl)pyridine-3-carboxamide]
NAMPT Inhibition Code (NAMPT): B (B = ≥33 to <66% inhibition)

Structure (SMILES): CC(=O)N(C)Cc1ccc(-c2ccc(C(=O)NCc3cccnc3)nc2)cc1 [Compound I-319, 5-[4-[[acetyl(methyl)amino]methyl]phenyl]-N-(3-pyridylmethyl)pyridine-2-carboxamide]
IC50 (MV-4-11 cells; [2]): 10000 nM

Continued, values first:

NAMPT Inhibition Code (NAMPT): B (B = ≥33 to <66% inhibition) | IC50 (MV-4-11 cells; [1]): 20.6 nM
Structure (SMILES): CC(=O)N(CC1CC(F)(F)C1)c1ccc(-c2ccc(C(=O)NCc3cccnc3)cn2)cc1C [Compound I-600, 6-[4-[Acetyl-[(3,3-difluorocyclobutyl)methyl]amino]-3-methyl-phenyl]-N-(3-pyridylmethyl)pyridine-3-carboxamide]

NAMPT Inhibition Code (NAMPT): C (C = ≥66% inhibition) | IC50 (MV-4-11 cells; [1]): < 5.89 nM
Structure (SMILES): CC(=O)N(CC1CC(F)(F)C1)c1ccc(-c2ccc(C(=O)NCc3cccnc3)cn2)cc1Cl [Compound I-603, 6-[4-[Acetyl-[(3,3-difluorocyclobutyl)methyl]amino]-3-chloro-phenyl]-N-(3-pyridylmethyl)pyridine-3-carboxamide]

NAMPT Inhibition Code (NAMPT): A (A = <33% inhibition) | IC50 (MV-4-11 cells; [1]): 2140 nM
Structure (SMILES): CC(=O)N(CC(C)C)c1ccc(-c2ccc(C(=O)NCc3cccnc3C)cn2)cc1C [Compound I-454, 6-[4-[acetyl(isobutyl)amino]-3-methyl-phenyl]-N-[(2-methyl-3-pyridyl)methyl]pyridine-3-carboxamide]

NAMPT Inhibition Code (NAMPT): C (C = ≥66% inhibition) | IC50 (MV-4-11 cells; [2]): < 11.7 nM
Structure (SMILES): CCC(=O)N(CC(C)C)c1ccc(-c2ccc(C(=O)NCc3cccnc3)cn2)cc1 [Compound I-403, 6-[4-[isobutyl(propanoyl)amino]phenyl]-N-(3-pyridylmethyl)pyridine-3-carboxamide]

NAMPT Inhibition Code (NAMPT): B (B = ≥33 to <66% inhibition) | IC50 (MV-4-11 cells; [1]): 5370 nM
Structure (SMILES): CCC(=O)N(C)c1ccc(-c2ccc(C(=O)NCc3ccc(OC)nc3)cn2)cc1C [Compound I-451]

NAMPT Inhibition Code (NAMPT): C (C = ≥66% inhibition) | IC50 (MV-4-11 cells; [1]): 10.7 nM
Structure (SMILES): CC(=O)N(c1ccc(-c2ccc(C(=O)NCc3cccnc3)cn2)cc1C)C(C)C [Compound I-495, 6-[4-[Acetyl(isopropyl)amino]-3-methyl-phenyl]-N-(3-pyridylmethyl)pyridine-3-carboxamide]

NAMPT Inhibition Code (NAMPT): C (C = ≥66% inhibition) | IC50 (MV-4-11 cells; [1]): < 6.64 nM
Structure (SMILES): CC(=O)N(CC(C)C)c1ccc(-c2ccc(C(=O)NCc3cccnc3)cn2)cc1C [Compound I-594, 6-[4-[Acetyl(isobutyl)amino]-3-methyl-phenyl]-N-(3-pyridylmethyl)pyridine-3-carboxamide]

NAMPT Inhibition Code (NAMPT): C (C = ≥66% inhibition) | IC50 (MV-4-11 cells; [1]): 67.2 nM
Structure (SMILES): CC(=O)N(CC(F)F)c1ccc(-c2ccc(C(=O)NCc3cccnc3)cn2)cc1Cl [Compound I-619, 6-[4-[Acetyl(2,2-difluoroethyl)amino]-3-chloro-phenyl]-N-(3-pyridylmethyl)pyridine-3-carboxamide]

NAMPT Inhibition Code (NAMPT): A (A = <33% inhibition) | IC50 (MV-4-11 cells; [1]): > 15800 nM
Structure (SMILES): CCC(=O)N(C)c1ccc(-c2ccc(C(=O)N(C)Cc3cccnc3)cn2)cc1C [Compound I-496, N-methyl-6-[3-methyl-4-[methyl(propanoyl)amino]phenyl]-N-(3-pyridylmethyl)pyridine-3-carboxamide]

IC50 (MV-4-11 cells; [2]): 3460 nM
Structure (SMILES): CC(=O)N(C)c1ccc(-c2ccc(C(=O)NCc3cccnc3C)cn2)cc1C [Compound I-428, 6-[4-[acetyl(methyl)amino]-3-methyl-phenyl]-N-[(2-methyl-3-pyridyl)methyl]pyridine-3-carboxamide]

IC50 (MV-4-11 cells; [2]): 13800 nM
Structure (SMILES): CC(=O)N(C)c1ccc(-c2ccc(C(=O)NCc3cccnc3F)cn2)cc1C [Compound I-436, 6-[4-[acetyl(methyl)amino]-3-methyl-phenyl]-N-[(2-fluoro-3-pyridyl)methyl]pyridine-3-carboxamide]

IC50 (MV-4-11 cells; [2]): 4030 nM
Structure (SMILES): CCN(C(C)=O)c1ccc(-c2ccc(C(=O)NCc3cccnc3C)cn2)cc1C [Compound I-429, 6-[4-[acetyl(ethyl)amino]-3-methyl-phenyl]-N-[(2-methyl-3-pyridyl)methyl]pyridine-3-carboxamide]
